Reference: US11535606B2, “Substituted quinoline-8-carbonitrile derivatives with androgen receptor degradation activity and uses thereof” (ACCUTAR BIOTECHNOLOGY INC., priority 2019, dated 2022)
Numbering of substitutions follows the chain as printed.

What was measured:
Format in all cases: cell-based
Details in all cases: 24 hours after administration, DC50 = concentration needed for 50% target protein degradation
androgen receptor (AR) [1] = target: T1, androgen receptor (AR) (Homo sapiens, UniProt P10275, T878A); experiment: AR degradation activity in LNCAP cells (Western blot)
T1 construct: endogenous in cells; host or cells: LNCAP
T1 sequence (P10275 1-920 T878A): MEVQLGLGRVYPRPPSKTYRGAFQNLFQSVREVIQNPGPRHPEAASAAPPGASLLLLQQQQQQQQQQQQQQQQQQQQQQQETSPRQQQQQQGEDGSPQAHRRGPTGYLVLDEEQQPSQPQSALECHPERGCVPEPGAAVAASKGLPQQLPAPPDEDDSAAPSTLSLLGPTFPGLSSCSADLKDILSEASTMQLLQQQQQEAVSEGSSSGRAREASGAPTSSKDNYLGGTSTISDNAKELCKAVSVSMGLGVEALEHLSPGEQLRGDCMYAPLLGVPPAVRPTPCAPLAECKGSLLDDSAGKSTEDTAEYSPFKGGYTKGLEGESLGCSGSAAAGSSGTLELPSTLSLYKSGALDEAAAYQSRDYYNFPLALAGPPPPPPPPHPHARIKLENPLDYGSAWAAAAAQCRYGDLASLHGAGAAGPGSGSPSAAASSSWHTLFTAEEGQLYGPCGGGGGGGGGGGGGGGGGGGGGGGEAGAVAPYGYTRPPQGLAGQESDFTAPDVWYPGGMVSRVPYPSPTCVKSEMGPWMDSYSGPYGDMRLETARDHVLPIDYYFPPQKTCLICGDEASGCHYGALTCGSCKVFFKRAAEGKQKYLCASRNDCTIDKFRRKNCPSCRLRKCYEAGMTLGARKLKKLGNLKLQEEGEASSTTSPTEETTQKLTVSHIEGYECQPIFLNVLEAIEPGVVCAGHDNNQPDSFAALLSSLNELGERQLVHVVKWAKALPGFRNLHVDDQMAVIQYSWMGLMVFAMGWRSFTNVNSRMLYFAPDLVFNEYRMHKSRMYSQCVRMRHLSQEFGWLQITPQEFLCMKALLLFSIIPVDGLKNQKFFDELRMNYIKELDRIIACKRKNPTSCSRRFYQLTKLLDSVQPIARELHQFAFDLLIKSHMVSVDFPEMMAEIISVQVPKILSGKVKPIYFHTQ
Method: (§1) LNCAP, VCAP and 22Rv1 cells were plated in 24-well plates at 1.5×10E5 cells/well in the RPMI growth medium containing 10% FBS and 1% Penicillin Streptomycin, and then incubated at 37° C. overnight. The following day, the test compound was administered to the cells by using 1000× compound stock solution prepared in DMSO at various concentrations. After administration of the compound, the cells were then incubated at 37° C. for 24 hours. Upon completion, the cells were washed with PBS and protein was collected in Laemmli sample buffer (1×; VWR International). Proteins in cell lysate were separated by SDS-PAGE and transferred to Odyssey nitrocellulose membranes (Licor) with Iblot® dry blotting transfer system (ThermoFisher). Nonspecific binding was blocked by incubating membranes with Intercept Blocking Buffer (Licor) for 1 hour at room temperature with gentle shaking. The membranes were then incubated overnight at 4° C. with Primary antibodies rabbit anti-AR (1:1,000, Cell Signaling, 5153) and mouse anti-GAPDH (1:5,000, Santa Cruz Biotechnology, sc-47724) diluted in Intercept Blocking Buffer containing 0.1% Tween 20. After washing 3 times with TBS-T, the membranes were incubated with IRDye® 800CW goat anti-mouse IgG (1:20,000, Licor) or IRDye® 800CW goat anti-rabbit IgG (1:20,000, Licor) for 1 hour. After TBS-T washes, membranes were rinsed in TBS and scanned on Odyssey® CLx Imaging System (Licor). The bands were quantified using Image Studio™ Software (Licor).
(§2) Table 4 summarizes the androgen receptor (AR) degradative activity of exemplary compounds in LNCAP, VCAP and 22Rv1 cell lines 24 hours after administration. DC50: compound concentration needed for 50% target protein degradation.

androgen receptor (AR) [2] = experiment: AR degradation activity in 22Rv1 cells (Western blot)
Method: as §1, §2

androgen receptor (AR) [3] = target: T2, androgen receptor (AR) (Homo sapiens, UniProt P10275); experiment: AR degradation activity in VCAP cells (Western blot)
T2 construct: endogenous in cells; host or cells: VCAP
T2 sequence (P10275 1-920): T1 sequence (P10275 1-920 T878A) with A878T
Method: as §1, §2

Measured: DC50

N#Cc1ccc(O[C@H]2CC[C@H](NC(=O)c3ccc(N4CCC(CN5CCN(c6ccc7c(c6)CN([C@H]6CCC(=O)NC6=O)C7=O)CC5)CC4)nc3)CC2)c2cccnc12 [Compound 3-29, trans-N-(4-((8-cyanoquinolin-5-yl)oxy)cyclohexyl)-6-(4-((4-(2-((S)-2,6-dioxopiperidin-3-yl)-1-oxoisoindolin-5-yl)piperazin-1-yl)methyl)piperidin-1-yl)nicotinamide]
< 10 nM: all assays above

N#Cc1ccc(O[C@H]2CC[C@H](NC(=O)c3ccc(N4CCC(CN5CCN(c6ccc7c(c6)CN([C@H]6CCC(=O)NC6=O)C7=O)CC5)CC4)c(F)c3)CC2)c2cccnc12 [Compound 3-31, trans-N-(4-((8-cyanoquinolin-5-yl)oxy)cyclohexyl)-4-(4-((4-(2-((S)-2,6-dioxopiperidin-3-yl)-1-oxoisoindolin-5-yl)piperazin-1-yl)methyl)piperidin-1-yl)-3-fluorobenzamide]
< 10 nM: all assays above

N#Cc1ccc(OC2CCC(NC(=O)c3ccc(N4CCC(CN5CCN(c6cc7c(cc6F)C(=O)N(C6CCC(=O)NC6=O)C7=O)CC5)CC4)nn3)CC2)c2cccnc12 (stereo not drawn) [Compound 3-36]
< 10 nM: all assays above
